pIC50: −log10 of the molar value.

The assay addresses T1, M1 family aminopeptidase (Plasmodium falciparum (isolate FcB1 / Columbia), UniProt O96935).
T1 sequence (O96935 whole entry): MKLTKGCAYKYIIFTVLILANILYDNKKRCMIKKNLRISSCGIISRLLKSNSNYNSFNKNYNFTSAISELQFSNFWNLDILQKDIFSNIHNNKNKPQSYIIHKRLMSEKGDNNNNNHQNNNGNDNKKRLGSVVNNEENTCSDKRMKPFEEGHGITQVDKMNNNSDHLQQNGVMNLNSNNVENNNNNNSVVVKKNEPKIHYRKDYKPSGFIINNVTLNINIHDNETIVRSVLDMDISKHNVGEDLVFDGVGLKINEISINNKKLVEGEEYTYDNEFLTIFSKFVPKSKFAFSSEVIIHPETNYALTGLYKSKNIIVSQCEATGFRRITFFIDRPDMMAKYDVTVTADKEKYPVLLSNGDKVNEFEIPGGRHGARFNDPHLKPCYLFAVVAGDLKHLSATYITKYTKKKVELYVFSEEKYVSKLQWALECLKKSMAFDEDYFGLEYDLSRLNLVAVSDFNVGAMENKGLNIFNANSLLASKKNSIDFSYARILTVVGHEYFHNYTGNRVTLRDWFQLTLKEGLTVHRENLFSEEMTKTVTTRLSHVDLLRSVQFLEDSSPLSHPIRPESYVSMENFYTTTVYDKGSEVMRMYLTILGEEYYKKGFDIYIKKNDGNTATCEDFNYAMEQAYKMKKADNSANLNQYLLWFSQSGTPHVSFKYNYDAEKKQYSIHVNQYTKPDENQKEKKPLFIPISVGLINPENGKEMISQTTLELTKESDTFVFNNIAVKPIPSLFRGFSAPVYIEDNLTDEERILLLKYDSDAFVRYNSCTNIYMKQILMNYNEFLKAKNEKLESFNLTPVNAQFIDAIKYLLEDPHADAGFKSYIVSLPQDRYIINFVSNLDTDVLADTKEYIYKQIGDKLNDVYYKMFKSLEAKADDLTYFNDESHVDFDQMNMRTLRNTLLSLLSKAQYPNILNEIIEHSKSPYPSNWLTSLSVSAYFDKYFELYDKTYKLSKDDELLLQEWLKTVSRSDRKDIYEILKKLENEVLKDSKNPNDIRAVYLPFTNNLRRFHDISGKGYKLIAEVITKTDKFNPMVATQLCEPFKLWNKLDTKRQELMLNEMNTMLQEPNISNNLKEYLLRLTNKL
The experiment in a line: malaria alanyl aminopeptidase activity blockers – biochemical, fluorogenic H-Leu-NHMec substrate, 1536-well (AID 1445).

Regarding `O=[N+]([O-])c1cc(Br)c(O)c(CN=Nc2nnnn2-c2cccc3ccccc23)c1` [(6E)-2-bromo-6-[[2-(1-naphthalen-1-yltetrazol-5-yl)hydrazinyl]methylidene]-4-nitrocyclohexa-2,4-dien-1-one], the negative-log IC50 (pIC50) (commonly the IC50 on a negative log10 scale, so that one unit is a factor of ten) is 5.17. `Oc1ccc(O)n1-c1nc2n(n1)C(c1ccccc1)CC(c1ccc(Br)cc1)=N2` (stereo not given) [MLS000037189] had a pIC50 of 4.16. As for `O=C1CC(c2ccco2)CC(=O)C1=CNc1cc(Cl)ccc1O` (stereo not given) [MLS000037985], the figure is 5.25.

Compound `COc1ccccc1C1CC(c2ccc(Cl)cc2)=Nc2nc(-n3c(O)ccc3O)nn21` (stereo not given) [MLS000040652] showed a pIC50 of 4.51. `N#CC(C(=O)CSc1nnc(Cc2cccs2)n1C1CCCCC1)c1nc2ccccc2[nH]1` (stereo not given) [MLS000098387] gave a pIC50 of 4.10. For `Cc1ccc(O)c(NC=C2C(=O)c3ccccc3C2=O)c1` [MLS000104939], the pIC50 is 4.14. The same measure for `Cc1c(N2C(=O)C(=O)C(C(=O)c3ccc(Cl)cc3)C2c2ccccc2)c(=O)n(-c2ccccc2)n1C` (stereo not given) [MLS000331609]: 4.21; for `CC(NNC(=O)c1ccccc1O)=C1C(=O)c2ccccc2C1=O` [MLS000523164]: 4.89. With `COC1=CC(/C=C(\C#N)c2nc3ccccc3s2)C=C([N+](=O)[O-])C1=O` (stereo not given) [MLS000682120], the pIC50 was 4.96.

Consider `O=C(O)Cc1sc(N[N-][CH+]c2ccc(-c3ccc(Cl)c([N+](=O)[O-])c3)o2)nc1O` [MLS000689975], for which the pIC50 is 4.27. Regarding `CCOC1=CC(/C=N/NC(=O)c2cccs2)C=C([N+](=O)[O-])C1=O` (stereo not given) [MLS000698505], the pIC50 is 3.99.

The compound `CCOC(=O)C1C(=O)C(=Cc2ccc(OCC(=O)O)c(OCC)c2)SC1=Nc1ccc(OC)cc1` (stereo not given) [MLS000704394] gave a pIC50 of 4.44. Regarding `Cc1c(N2C(=O)C(=O)C(C(=O)c3ccc(Br)cc3)C2c2cccnc2)c(=O)n(-c2ccccc2)n1C` (stereo not given) [MLS000724383], the pIC50 was 4.42. The same measure for `CCN1C(=O)/C(=N\NC(=O)c2cccs2)c2ccccc21` [MLS000760154]: 4.15; for `O=C(O)COc1ccccc1CN=Nc1ccc(S(=O)(=O)Nc2ccc(Cl)cc2)cc1[N+](=O)[O-]` [MLS000774437]: 4.41; for `COC(=O)c1ccc(COc2ccccc2CN=Nc2cccc(C(=O)O)c2)cc1` [MLS000775447]: 4.33. The same measure for `CCOC(=O)C1C(CC)=Nc2ccccc2N=C1NS(=O)(=O)c1cc(Br)ccc1Br` (stereo not given) [MLS000775637]: 4.52; for `O=C(O)c1cccc(-c2ccc(CN=Nc3ccc([N+](=O)[O-])cc3)o2)c1` [MLS000777078]: 4.56; for `CC1=CC([N+](=O)[O-])=CC(/C=N/NC(=O)C2COc3ccccc3O2)C1=O` (stereo not given) [N'-[(E)-(5-methyl-3-nitro-6-oxocyclohexa-2,4-dien-1-ylidene)methyl]-2,3-dihydro-1,4-benzodioxine-3-carbohydrazide]: 5.52. Compound `O=C1C([N+](=O)[O-])=CC=CC1/C=N/NC(=O)C1COc2ccccc2O1` (stereo not given) [N'-[(E)-(5-nitro-6-oxo-1-cyclohexa-2,4-dienylidene)methyl]-2,3-dihydro-1,4-benzodioxin-3-carbohydrazide] gave a pIC50 of 4.50. On to `CC(NNC(=O)c1cc2ccccc2cc1O)=C1C(=O)c2ccccc2C1=O` [N-[1-[1,3-bis(oxidanylidene)inden-2-yl]ethylideneamino]-3-oxidanyl-naphthalene-2-carboxamide], for which the pIC50 is 4.92. For the compound `COC1=CC(C=NNC(=O)[C@H](Cc2c[nH]c3ccccc23)NC(=O)OCC(C)C)C=C([N+](=O)[O-])C1=O` (stereo partly drawn) [N-[(2S)-3-(1H-indol-3-yl)-1-[[(E)-(3-methoxy-5-nitro-4-oxo-1-cyclohexa-2,5-dienylidene)methyl]hydrazo]-1-oxopropan-2-yl]carbamic acid 2-methylpropyl ester], the pIC50 was 4.91. Consider `CCCCCCC(=O)N(O)c1cc(O)n(-c2ccccc2)c1O` [SMR000043985], for which the pIC50 was 4.18. Consider `COc1ccccc1-c1nnc(SCC(=O)C(C#N)c2nc3ccccc3[nH]2)n1C1CCCCC1` (stereo not given) [SMR000067321], for which the pIC50 is 4.28.

Compound `COc1cc(Br)c(C2c3c(-c4cccnc4)n[nH]c3OC(=N)C2C#N)cc1OC` (stereo not given) [SMR000114618] gave a pIC50 of 4.35. The same measure for `Cc1cc(=O)[nH]c(N=NCc2c(O)n(-c3ccccc3)c(=O)c3ccccc23)n1` [SMR000221270]: 4.33. As to `C=c1c(C#N)c2[nH]c(N)c(C#N)c(C)c-2c1=Cc1ccc(-c2ccccc2C(=O)O)o1` [SMR000277284], the pIC50 is 4.28. As for `O=C(Cn1cnc([N+](=O)[O-])n1)N/N=C/C1C=C(Cl)C=CC1=O` (stereo not given) [SMR000312480], the pIC50 was 4.88. As to `O=C(O)c1cccc(NC(=S)NN=Cc2ccccc2OCc2cccc(Br)c2)c1` [SMR000312741], the pIC50 is 3.96. `C=c1[nH]n(-c2ccc(Cl)c(C(=O)O)c2)c(=O)c1=Cc1ccc(-c2ccc(C(=O)O)cc2)o1` [SMR000312901] showed a pIC50 of 5.62. The same measure for `C#CCOCCOCCOCCNc1nc(N2CCN(C(=O)[C@H](Cc3cc4ccccc4[nH]3)n3cc([C@@H](N)C(C)CC)nn3)CC2)nc(N2CCN(C(=O)[C@H](Cc3cc4ccccc4[nH]3)n3cc([C@@H](N)CC(C)C)nn3)CC2)n1` (stereo not given in full) [SMR000391064]: 4.26.

The compound `C#CCOCCOCCOCCNc1nc(N2CCN(C(=O)C(Cc3cc4ccccc4[nH]3)n3cc(C(N)C(C)CC)nn3)CC2)nc(N2CCN(C(=O)C(Cc3cc4ccccc4[nH]3)n3cc(C(N)C(C)CC)nn3)CC2)n1` (stereo not given) [SMR000391068] showed a pIC50 of 4.14. In turn, `Cc1cc(C(=O)NN=CC2C=C(Cl)C=C([N+](=O)[O-])C2=O)[nH]n1` (stereo not given) [SMR000414694] had a negative-log IC50 (pIC50) of 4.28. Consider `Cc1ccc2c(c1C)Nc1c(c(=O)c1=O)N2` [SMR000459860], for which the pIC50 was 4.31. `COc1ccc(-c2c/c(=N\CCCCCC(=O)O)c3cc(C)ccc3o2)cc1` [[2-(4-methoxyphenyl)-6-methyl-chromen-4-ylidene]-(6-oxidanyl-6-oxidanylidene-hexyl)azanium;perchlorate]: the pIC50 is 5.14.

The compound `C/C(Cl)=C\CN1C(=O)C(=NNC(N)=S)c2ccccc21` [[(Z)-[1-[(E)-3-chlorobut-2-enyl]-2-oxoindol-3-ylidene]amino]thiourea] showed a negative-log IC50 (pIC50) of 4.20. `COC1=CC(C=NNC(=O)C(Cc2c[nH]c3ccccc23)NC(=O)OCc2ccccc2)C=C([N+](=O)[O-])C1=O` (stereo not given) [benzyl N-[3-(1H-indol-3-yl)-1-[2-[(E)-(3-methoxy-5-nitro-4-oxocyclohexa-2,5-dien-1-ylidene)methyl]hydrazinyl]-1-oxopropan-2-yl]carbamate] showed a negative-log IC50 (pIC50) of 5.32. The compound `COC(=O)CN1C(=O)C2(c3ccccc31)c1c(-c3cccs3)n[nH]c1OC(=N)C2C#N` (stereo not given) [methyl (6'-amino-5'-cyano-2-oxo-3'-thien-2-yl-1'H-spiro[indole-3,4'-pyrano[2,3-c]pyrazol]-1(2H)-yl)acetate] showed a pIC50 of 4.44. In turn, `Cc1nnc(=O)[nH]c1N=NCc1cccs1` [thiophene-2-carbaldehyde (6-methyl-3-oxo-2,3-dihydro-1,2,4-triazin-5-yl)hydrazone] had a pIC50 of 4.59. In turn, `CCOc1cc(CN=Nc2nc(O)c(CC(=O)O)s2)ccc1OS(=O)(=O)c1ccc(C)cc1` [{2-[(3-ethoxy-4-{[(4-methylphenyl)sulfonyl]oxy}benzylidene)hydrazono]-4-oxo-1,3-thiazolidin-5-yl}acetic acid] showed a pIC50 of 4.32.

These data come from BindingDB's records for doi:10.7270/Q27H1H0J (Srmlsc, 2008).
